Tests used:
[1] = system: CpomPBP1; assay: Competitive binding assay with 1-NPN fluorescence probe; design: species or system Cydia pomonella; settings: for Kd: wild type CpomPBP1, 2 μM protein, 2 μM 1-NPN, 50 mM Tris-HCl pH 7.0, read-out: dissociation constant (Kd)
Protocol: (§1) According to the results of virtual screening and commercial availability of the matched semiochemicals, 8 compounds (including Codlemone) were finally subjected to competitive binding assay by taking 1-NPN as the fluorescence probe. All ligands including 1-NPN were dissolved in ethanol of GC grade. […] The fluorescence was measured on a Hitachi F-4600 spectrofluorimeter with a slit width of 5 nm for excitation and emission. The excitation wavelength was decided to be 337 nm and the fluorescence emissions were recorded from 350 to 500 nm. The in vitro binding assays between CpomPBP2 and small molecule compounds were performed in the same way.
(§2) It was assumed that CpomPBP1 (MT and WT) was 100% active and the binding between protein and ligand was 1:1 at saturation. To analyze the obtained data and to calculate the Kd of each ligand, Graphpad Prism software (Graphpad software, Inc.) was employed.

[2] = target: CpomPBP2 (Cydia pomonella, UniProt I3ZNT9); assay: as above
Protocol: as §1, §2

[3] = system: CpomPBP1F36A; assay: Competitive binding assay, mutant protein; design: species or system Cydia pomonella; settings: F36A; RTln(Kd-MT/Kd-WT)
Protocol: as §1
(§3) To test binding ability changes of CpomPBP1 caused by the mutation of each target site, the in vitro binding assays between CpomPBP1 proteins (MT and WT CpomPBP1) and ETrME was implemented according to the part of competitive binding assay.
as §2
(§4) The experimental binding free energy of the complexes formed by ETrME and each mutant was calculated by the equation (1): […]
(§5) In this equation, Kd-MT and Kd-WT are the dissociation constants for mutant and wild CpomPBP1 respectively. R stands for the ideal gas constant and T means the temperature in Kelvin.

[4] = system: CpomPBP1I52A; assay: Competitive binding assay, mutant protein; design: species or system Cydia pomonella; settings: I52A; RTln(Kd-MT/Kd-WT)
Protocol: as §1, §3, §2, §4, §5

[5] = system: CpomPBP1I94A; assay: Competitive binding assay, mutant protein; design: species or system Cydia pomonella; settings: I94A; RTln(Kd-MT/Kd-WT)
Protocol: as §1, §3, §2, §4, §5

[6] = system: CpomPBP1W37A; assay: Competitive binding assay, mutant protein; design: species or system Cydia pomonella; settings: W37A; RTln(Kd-MT/Kd-WT)
Protocol: as §1, §3, §2, §4, §5

[7] = system: CpomPBP1F12A; assay: Competitive binding assay, mutant protein; design: species or system Cydia pomonella; settings: F12A; RTln(Kd-MT/Kd-WT)
Protocol: as §1, §3, §2, §4, §5

CpomPBP2, sequence (I3ZNT9 26-169 limits assumed): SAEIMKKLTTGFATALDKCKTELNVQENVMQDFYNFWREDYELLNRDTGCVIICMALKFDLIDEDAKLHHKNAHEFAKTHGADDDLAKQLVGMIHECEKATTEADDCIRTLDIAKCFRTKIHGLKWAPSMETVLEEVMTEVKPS

CCCCC/C=C\C/C=C\CCCCCCCC(=O)O [Linoleic acid]
binding to CpomPBP1 (in words) ([1]; titration 0 to 64 μM ligand, 1-NPN probe): no binding

C/C=C/C=C/CCCCCCCO [Codlemone, reference compound]
Kd [1]: 3.78 µM
binding to CpomPBP2 (in words) ([2]; titration course, 1-NPN probe): no binding

CCC=CCC=CCC=CCC=CC=CC(O)CCCC(=O)O (racemic) [(±)5-HEPE]
Kd [1]: 8.23 µM

CCC=CCC=CCC=CCCCCCCCCCC(=O)OC [ETrME]
Kd [1]: 3.14 µM
Kd ([2]; CpomPBP2, 1-NPN competitive binding, read-out: dissociation constant (Kd)): 8.62 µM
ΔΔGbind-exp [3]: 3.25 kcal/mol
ΔΔGbind-exp [4]: 1.86 kcal/mol
ΔΔGbind-exp [5]: 1.4 kcal/mol
ΔΔGbind-exp [6]: 3.54 kcal/mol
ΔΔGbind-exp [7]: 2.80 kcal/mol

CCCCC/C=C\C/C=C\C/C=C\CCCCCCC(=O)O [Z-8,11,14-Eicosatrienoic acid]
Kd [1]: 12.8 µM

— article PMC5052595, “Structure-based discovery of potentially active semiochemicals for Cydia pomonella (L.)” (Scientific Reports, 2016)
